According to patent EP0683787B1, “4'-O-SULFONYL-ANTHRACYCLINE DERIVATIVES” (PHARMACIA & UPJOHN S.p.A., priority 1993, dated 1995):
In brackets after ≈: the same amount, converted by molar mass.

Columns and labels:
[1] = test system: P388 murine leukaemia resistant to doxorubicin; assay: Antitumor activity in vivo on P388/DX leukaemia; parameters: species or system BD2F1 mice; settings: for T/C: Median survival time of treated mice/Median survival time of controls x 100, at Optimal Dose, i.v. one day after tumor transplantation; for O.D. (Optimal Dose): injected i.v. one day after tumor transplantation, 10^5 cell/mouse transplanted i.v.
[2] = test system: LoVo (colon adenocarcinoma); assay: Colony assay, cytotoxic activity on LoVo cells; format: cell-based; settings: Homo sapiens, Colony assay: 4 h treatment, concentration inhibiting 50% colony formation
Source text: (§1) The cytotoxic activity is reported as IC50, the concentration inhibiting 50% of colony formation, calculated on concentration response curves. Resistance index R.I. is the ratio between the IC50 on resistant cells and the IC50 on sensitive cells.

[3] = test system: LoVo/DX (colon adenocarcinoma resistant to doxorubicin); assay: Colony assay, cytotoxic activity on LoVo/DX cells; format: cell-based, human; settings: for R.I. (Resistance Index): (IC50 Lovo/DX)/(IC50 LoVo); for IC50: Homo sapiens, LoVo/DX, Colony assay: 4 h treatment, concentration inhibiting 50% colony formation
Source text: as §1

Structure (SMILES)	T/C [1]	O.D. (Optimal Dose) [1]	IC50 [2]	R.I. (Resistance Index) [3]	IC50 [3]
CC(=O)[C@]1(O)Cc2c(O)c3c(c(O)c2[C@@H](O[C@H]2C[C@H](N)[C@H](OS(C)(=O)=O)[C@H](C)O2)C1)C(=O)c1ccccc1C3=O [Compound 1b, 4-demethoxy-4'-O-methansulfonyldaunorubicin]	133%	8.1 mg/kg	0.0105 µg/mL (≈ 0.0182 µM)	5.8	0.0605 µg/mL (≈ 0.105 µM)
COc1cccc2c1C(=O)c1c(O)c3c(c(O)c1C2=O)C[C@@](O)(C(=O)CO)C[C@@H]3O[C@H]1C[C@H](N)[C@H](OS(C)(=O)=O)[C@H](C)O1 [Compound 2a, 4'-O-methansulfonyldoxorubicin]	137%	40.0 mg/kg	0.0173 µg/mL (≈ 0.0278 µM)	104.0	1.8 µg/mL (≈ 2.9 µM)
COc1cccc2c1C(=O)c1c(O)c3c(c(O)c1C2=O)C[C@@](O)(C(=O)CO)C[C@@H]3O[C@H]1C[C@H](N)[C@H](O)[C@H](C)O1 [doxorubicin, reference compound]		16.9 mg/kg	0.049 µg/mL (≈ 0.0902 µM)		2.55 µg/mL (≈ 4.7 µM)
